According to PMC10331583, “Control of fibrosis with enhanced safety via asymmetric inhibition of prolyl‐tRNA synthetase 1” (EMBO Molecular Medicine, 2023):
“And” between values parts separate entries of the source, which are not always exact repeats. Equal values may be shown once. Read-outs that look alike come from different tables or passages of the source.

What was measured:
WI‐26 VA4 cells = assay: Puromycin incorporation assay; format: cell-based, human; conditions: for activity at 0.003 µM: WI26VA4, 3 nM; for activity at 0.01 µM: WI26VA4, 10 nM; for activity at 0.03 µM: WI26VA4, 30 nM; for activity at 0.1 µM: WI26VA4, 100 nM; for activity at 0.3 µM: WI26VA4, 300 nM; for activity at 0.5 µM: WI26VA4, 500 nM; for activity at 1 µM: WI26VA4, 1000 nM
In short: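 WI‐26 VA4 cell lysates prepared in carbonate-bicarbonate buffer with protease inhibitor; 400 ng protein coated on ELISA plates 18 h at 4°C. Puromycin incorporated into proteins detected by antibody ELISA, absorbance 450 nm with 620 nm reference; outlier values excluded based on replicates and adjacent concentrations.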

[1] = tested on: TNT Quick Coupled Transcription/Translation System (luciferase synthesis); format: biochemical
[2] = Homo sapiens, read-out: Puromycin, % of control, average
[3] = Homo sapiens, read-out: Puromycin, % of control, single replicate
[4] = log(inhibitor) vs. response, variable slope (four parameters), concentration in nM

Cc1c(Br)cnc2c1ncn2CC(=O)C[C@H]1NCCC[C@@H]1O [DWN11761]
Puromycin, % of control, single replicate (WI‐26 VA4 cells; 500 nM, 0.5 µM): 54.77 % of control and 53.35 % of control and 56.10 % of control and 56.57 % of control and 57.43 % of control and 59.14 % of control and 54.96 % of control | Puromycin, % of control, single replicate (WI‐26 VA4 cells; 1000 nM, 1 µM): 28.04 % of control and 30.25 % of control and 30.46 % of control and 30.97 % of control and 31.52 % of control and 29.73 % of control and 28.78 % of control | Puromycin, % of control, single replicate (WI‐26 VA4 cells; 3000 nM, 3 µM): 0.34 % of control and -0.19 % of control and -0.45 % of control and 0.86 % of control and 1.02 % of control and 0.90 % of control and 0.51 % of control and -0.71 % of control | Puromycin, % of control, single replicate (WI‐26 VA4 cells; 10000 nM, 10 µM): 0.48 % of control and -0.27 % of control and -0.54 % of control and 1.84 % of control and 0.67 % of control and 0.24 % of control and 0.33 % of control and 0.60 % of control | Puromycin, % of control, single replicate (WI‐26 VA4 cells; 100000 nM, 100 µM): 0.17 % of control and 0.43 % of control and -0.14 % of control and 0.04 % of control and 0.27 % of control and -0.04 % of control and 0.92 % of control and 0.65 % of control | activity at 0.003 µM (WI‐26 VA4 cells; [2]): 105% | activity at 0.003 µM (WI‐26 VA4 cells; [3]): 104% | activity at 0.01 µM (WI‐26 VA4 cells; [2]): 104% | activity at 0.01 µM (WI‐26 VA4 cells; [3]): 101% | activity at 0.03 µM (WI‐26 VA4 cells; [2]): 105% | activity at 0.03 µM (WI‐26 VA4 cells; [3]): 103% | activity at 0.1 µM (WI‐26 VA4 cells; [2]): 122% | activity at 0.1 µM (WI‐26 VA4 cells; [3]): 114% | activity at 0.3 µM (WI‐26 VA4 cells; [2]): 117% | activity at 0.3 µM (WI‐26 VA4 cells; [3]): 115% | activity at 0.5 µM (WI‐26 VA4 cells; [2]): 55.6% | activity at 0.5 µM (WI‐26 VA4 cells; [3]): 52.3% | activity at 1 µM (WI‐26 VA4 cells; [2]): 29.5% | activity at 1 µM (WI‐26 VA4 cells; [3]): 26.2% | activity at 3 µM (WI‐26 VA4 cells; Homo sapiens, WI26VA4, 3000 nM, read-out: Puromycin, % of control, average): 0.29% | activity at 10 µM (WI‐26 VA4 cells; Homo sapiens, WI26VA4, 10000 nM, read-out: Puromycin, % of control, average): 0.42% | activity at 30 µM (WI‐26 VA4 cells; Homo sapiens, WI26VA4, 30000 nM, read-out: Puromycin, % of control, average): -0.13% | activity at 100 µM (WI‐26 VA4 cells; Homo sapiens, WI26VA4, 100000 nM, read-out: Puromycin, % of control, average): 0.29% | IC50 (WI‐26 VA4 cells; Homo sapiens, WI26VA4, log(inhibitor) vs. response, variable slope (four parameters), read-out: Puromycin, IC50 (best-fit value)): 581 nM | Puromycin, HillSlope (best-fit value) (WI‐26 VA4 cells; log(inhibitor) vs. response, variable slope (four parameters)): -3.124 | Puromycin, LogIC50 (best-fit value) (WI‐26 VA4 cells; [4]): 2.764 | TNT-luciferase % of control ([1]; 6 nM, Experiment #1, replicates, 0.006 µM): 103.28 % of control and 100.82 % of control and 110.66 % of control | TNT-luciferase % of control ([1]; 6 nM, Experiment #2, replicates, 0.006 µM): 86.60 % of control and 91.24 % of control and 93.56 % of control | TNT-luciferase % of control ([1]; 6 nM, Experiment #3, replicates, 0.006 µM): 100.46 % of control and 97.13 % of control and 93.79 % of control | TNT-luciferase % of control, average ([1]; 6 nM): 97.50 % of control | TNT-luciferase % of control ([1]; 20 nM, Experiment #1, replicates, 0.02 µM): 108.20 % of control and 109.84 % of control (2×) | TNT-luciferase % of control ([1]; 20 nM, Experiment #2, replicates, 0.02 µM): 85.82 % of control and 94.33 % of control and 98.20 % of control | TNT-luciferase % of control ([1]; 20 nM, Experiment #3, replicates, 0.02 µM): 98.25 % of control and 93.99 % of control and 91.88 % of control | TNT-luciferase % of control, average ([1]; 20 nM): 98.93 % of control | TNT-luciferase % of control ([1]; 60 nM, Experiment #1, replicates, 0.06 µM): 130.33 % of control and 132.79 % of control and 131.97 % of control | TNT-luciferase % of control ([1]; 60 nM, Experiment #2, replicates, 0.06 µM): 90.46 % of control and 98.97 % of control and 95.10 % of control | TNT-luciferase % of control ([1]; 60 nM, Experiment #3, replicates, 0.06 µM): 100.65 % of control and 91.36 % of control and 86.32 % of control | TNT-luciferase % of control, average ([1]; 60 nM): 106.44 % of control | TNT-luciferase % of control ([1]; 200 nM, Experiment #1, replicates, 0.2 µM): 106.56 % of control and 109.84 % of control and 110.66 % of control | TNT-luciferase % of control ([1]; 200 nM, Experiment #2, replicates, 0.2 µM): 68.51 % of control and 71.29 % of control and 70.98 % of control | TNT-luciferase % of control ([1]; 200 nM, Experiment #3, replicates, 0.2 µM): 96.73 % of control and 90.18 % of control and 101.79 % of control | TNT-luciferase % of control, average ([1]; 200 nM): 91.84 % of control | TNT-luciferase % of control ([1]; 600 nM, Experiment #1, replicates, 0.6 µM): 44.18 % of control and 45.33 % of control and 50.74 % of control | TNT-luciferase % of control ([1]; 600 nM, Experiment #2, replicates, 0.6 µM): 46.24 % of control and 47.63 % of control and 53.81 % of control | TNT-luciferase % of control ([1]; 600 nM, Experiment #3, replicates, 0.6 µM): 54.77 % of control and 51.07 % of control and 57.11 % of control | TNT-luciferase % of control, average ([1]; 600 nM): 50.10 % of control | TNT-luciferase % of control ([1]; 2000 nM, Experiment #1, replicates, 2 µM): 2.25 % of control and 2.32 % of control and 2.42 % of control | TNT-luciferase % of control ([1]; 2000 nM, Experiment #2, replicates, 2 µM): 3.17 % of control and 3.09 % of control and 3.97 % of control | TNT-luciferase % of control ([1]; 2000 nM, Experiment #3, replicates, 2 µM): 3.31 % of control and 3.19 % of control and 3.30 % of control | TNT-luciferase % of control, average ([1]; 2000 nM): 3.00 % of control | TNT-luciferase % of control ([1]; 6000 nM, Experiment #1, replicates, 6 µM): 0.05 % of control and 0.047 % of control and 0.06 % of control | TNT-luciferase % of control ([1]; 6000 nM, Experiment #2, replicates, 6 µM): 0.15 % of control and 0.14 % of control (2×) | TNT-luciferase % of control ([1]; 6000 nM, Experiment #3, replicates, 6 µM): 0.14 % of control (2×) and 0.12 % of control | TNT-luciferase % of control, average ([1]; 6000 nM): 0.11 % of control | TNT-luciferase % of control ([1]; 20000 nM, Experiment #1, replicates, 20 µM): -0.0091 % of control and -0.014 % of control and -0.00199 % of control | TNT-luciferase % of control ([1]; 20000 nM, Experiment #2, replicates, 20 µM): 0.00206 % of control and -0.00211 % of control and -0.00412 % of control | TNT-luciferase % of control ([1]; 20000 nM, Experiment #3, replicates, 20 µM): 0.02 % of control and -0.0067 % of control and 0.00433 % of control | TNT-luciferase % of control, average ([1]; 20000 nM): -0.00128 % of control | TNT-luciferase LogIC50 (best-fit value) [1, 4]: 2.775 | IC50 ([1]; log(inhibitor) vs. response, variable slope (four parameters), unit from head concentration (nM), read-out: TNT-luciferase IC50 (best-fit value)): 595 nM
